Data taken from patent publication US12195588B2, “Polyether derivatives, uses, and methods of making the same” (P2 Science, Inc., priority 2017, dated 2025).
Where two headings read alike, the source gives them in different places.

Tested on: female Yellow Fever mosquitos (Aedes aegypti)
Format: in vivo
Procedure: Mosquitos are exposed to the treatments applied to 3-cm diameter collagen membranes placed over warmed, blood-filled wells in a multi-well plate. The wells are pre-warmed to 96-100° F., and then citrated whole blood with ATP is poured into each well to completely fill. The membrane is applied and secured using vacuum grease. To each membrane 25 microliters of the test solution is applied, and the solution is allowed to dry. The plate is then placed into a plastic box enclosure having 250 adult female mosquitos. The number of instances of a mosquito probing the membrane is recorded during a 20-minute period. The entire procedure is repeated until five replicates are complete. Treatment positions in the plates are rotated between each replicate to eliminate any positional bias. Fresh blood and mosquitoes are used in each replicate. Percent repellency is calculated by comparison to a negative control membrane treated only with water.
This is compared to a solution of DEET in IPA at 20% by weight as a control. The procedure is as described for Example 8.

[1] = Example 8, 25 microliters on membrane, 20-minute period, five replicates, DEET as 20% isopropanol solution
[2] = Example 8, by comparison to water-treated membrane, DEET as 20% isopropanol solution
[3] = Example 10, 20% by weight in IPA

CCN(CC)C(=O)c1cccc(C)c1 [DEET, di-ethyl-meta-toluamide]
Mosquito Probes [1]: 0 | % Repellency [2]: 100% | % Repellency [3]: 100% | Mosquito Probes [3]: 0

citronellol dimer acetate [Sample B]
Mosquito Probes [1]: 0.6 | % Repellency [2]: 98.8%

Citronellol dimer [Sample A]
Mosquito Probes [1]: 0.4 | % Repellency [2]: 99.1%
